“And” between values parts separate entries of the source, which are not always exact repeats. Identical values can stand only once. Like-named read-outs stand apart in the source and are kept apart here. Square brackets hold non-standard residues; d marks the D form. Ends that are not written are not given here. Peptide text beside a SMILES is read from it. 1Nal = N[C@@H](Cc1cccc2ccccc12)C(=O)O
Tests used:
[1] = target: T1, soluble uPAR (Homo sapiens, UniProt Q03405); assay: 125I-ATF competition binding to immobilized soluble uPAR (Activity Assay); conditions: competition with iodinated human uPA ATF tracer (100-500 pM), 2h at room temperature, PBS/0.1% BSA, triplicate
T1 construct: Purified soluble uPAR was biotinylated
T1 sequence (Q03405 23-305 limits assumed): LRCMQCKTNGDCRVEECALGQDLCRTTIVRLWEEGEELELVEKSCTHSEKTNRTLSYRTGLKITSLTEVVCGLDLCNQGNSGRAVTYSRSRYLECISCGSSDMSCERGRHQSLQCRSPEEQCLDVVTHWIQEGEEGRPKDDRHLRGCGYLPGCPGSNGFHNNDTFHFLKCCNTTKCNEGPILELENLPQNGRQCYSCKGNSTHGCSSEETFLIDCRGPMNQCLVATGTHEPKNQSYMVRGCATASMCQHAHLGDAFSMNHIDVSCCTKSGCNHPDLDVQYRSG
From the text: Purified soluble uPAR was biotinylated with NHS-biotin (Molecular Probes) and immobilized at 0.3 Tg/mL in phosphate-buffered saline (PBS)/0.1% BSA on streptavidin-coated Immulon-2 96-well Removawell plates. Human uPA N-terminal fragment (ATF; from M. Shuman, University of California, San Francisco) was iodinated by the Iodo-Gen method (Pierce). Unincorporated ^125 I was separated from labeled protein by Sephadex G-25 chromatography. The specific activity of the labeled protein was between 5×10^5 and 1×10^6 […]. The iodinated tracer (100-500 pM) was incubated with the peptides prepared in Example 1 triplicate for 2h at room temperature in PBS/0.1% BSA in a total volume of 200 TL. The plates were washed with PBS/0.1% BSA 3X, and remaining bound radioactivity was measured on an LKB 1277 Gammamaster. Scatchard analysis was performed by using the LIGAND program (Biosoft, Milltown, N.J.).

[2] = tested on: SaOS-2 osteosarcoma cell line; conditions: S. A. Rabbani et al.; cited from earlier work
[3] = U937 fibroblast cells; S. A. Rabbani et al.; cited from earlier work
[4] = target: uPAR (Homo sapiens, UniProt Q03405); conditions: E. Appella et al., J Biol Chem (1987), cited from earlier work
Chain of uPAR (Q03405 23-335): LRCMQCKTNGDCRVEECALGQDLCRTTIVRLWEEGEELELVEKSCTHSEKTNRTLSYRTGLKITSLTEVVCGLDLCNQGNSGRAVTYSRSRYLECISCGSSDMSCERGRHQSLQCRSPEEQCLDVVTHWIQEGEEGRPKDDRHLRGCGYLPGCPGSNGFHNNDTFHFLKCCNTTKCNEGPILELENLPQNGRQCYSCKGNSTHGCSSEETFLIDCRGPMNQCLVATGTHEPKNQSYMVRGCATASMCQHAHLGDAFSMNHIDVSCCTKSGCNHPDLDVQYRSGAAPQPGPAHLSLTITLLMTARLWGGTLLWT

Compound	IC50 ([1]; read-out: IC50)	other results
CC(C)C[C@H](NC(=O)[C@H](Cc1ccc(O)cc1)NC(=O)[C@H](CCC(N)=O)NC(=O)CNC(=O)[C@H](Cc1ccccc1)NC(=O)[C@H](CC(N)=O)NC(=O)[C@@H](N)CC(C)C)C(=O)N[C@@H](Cc1c[nH]c2ccccc12)C(=O)N[C@@H](Cc1ccc(O)cc1)C(=O)N[C@H](C(=O)O)[C@@H](C)O [SEQ ID NO: 1, LNFGQYLWYT] (H-LNFGQYLWYT-OH)	41 ± 17 nM	–
CC(C)C[C@H](NC(=O)[C@H](Cc1ccc(O)cc1)NC(=O)[C@H](CCC(N)=O)NC(=O)CNC(=O)[C@H](Cc1ccccc1)NC(=O)[C@H](CC(N)=O)NC(=O)[C@@H](N)CC(C)C)C(=O)N[C@@H](Cc1cccc2ccccc12)C(=O)N[C@@H](Cc1ccc(O)cc1)C(=O)N[C@H](C(=O)O)[C@@H](C)O [SEQ ID NO: 4, LNFGQYLnAYT] (H-LNFGQYL[1Nal]YT-OH)	–	IC50 ([1]; IC50 (nM)): 7 nM and 6 nM
CC(C)C[C@H](NC(=O)[C@H](Cc1ccc(O)cc1)NC(=O)[C@H](CCC(N)=O)NC(=O)[C@@H](CO)NC(=O)[C@H](Cc1ccccc1)NC(=O)[C@H](CC(N)=O)NC(=O)[C@@H](N)CC(C)C)C(=O)N[C@@H](Cc1c[nH]c2ccccc12)C(=O)N[C@@H](Cc1ccc(O)cc1)C(=O)N[C@H](C(=O)O)[C@@H](C)O [SEQ ID NO: 5, LNFdSQYLWYT] (H-LNF[dS]QYLWYT-OH)	7 nM and 11 nM	–
CC(C)C[C@H](NC(=O)[C@H](Cc1ccc(O)cc1)NC(=O)[C@H](CCC(N)=O)NC(=O)[C@@H](CO)NC(=O)[C@H](Cc1ccccc1)NC(=O)[C@H](CC(N)=O)NC(=O)[C@@H](N)CC(C)C)C(=O)N[C@@H](Cc1cccc2ccccc12)C(=O)N[C@@H](Cc1ccc(O)cc1)C(=O)N[C@H](C(=O)O)[C@@H](C)O [SEQ ID NO: 7, LNFdSQYLnAYT] (H-LNF[dS]QYL[1Nal]YT-OH)	33 ± 3 nM	–
CC(C)C[C@H](NC(=O)[C@H](Cc1ccc(O)cc1)NC(=O)[C@@H](CS)NC(=O)CNC(=O)[C@H](Cc1ccccc1)NC(=O)[C@H](CC(N)=O)NC(=O)[C@@H](N)CC(C)C)C(=O)N[C@@H](Cc1c[nH]c2ccccc12)C(=O)N[C@@H](CS)C(=O)N[C@H](C(=O)O)[C@@H](C)O [SEQ ID NO: 8, LNFGdCYLWCT] (H-LNFG[dC]YLWCT-OH)	8 nM and 14 nM	–
CC(C)C[C@H](NC(=O)[C@H](Cc1ccc(O)cc1)NC(=O)[C@H](CS)NC(=O)[C@@H](CO)NC(=O)[C@H](Cc1ccccc1)NC(=O)[C@H](CS)NC(=O)[C@@H](N)CC(C)C)C(=O)N[C@@H](Cc1c[nH]c2ccccc12)C(=O)N[C@@H](Cc1ccc(O)cc1)C(=O)N[C@H](C(=O)O)[C@@H](C)O [SEQ ID NO: 9, LCFdSCYLWYT] (H-LCF[dS]CYLWYT-OH)	9 nM and 23 nM	–
CC(C)C[C@H](NC(=O)[C@H](Cc1ccc(O)cc1)NC(=O)[C@H](CS)NC(=O)[C@@H](CO)NC(=O)[C@H](Cc1ccccc1)NC(=O)[C@H](CS)NC(=O)[C@@H](N)CC(C)C)C(=O)N[C@@H](Cc1cccc2ccccc12)C(=O)N[C@@H](Cc1ccc(O)cc1)C(=O)N[C@H](C(=O)O)[C@@H](C)O [SEQ ID NO: 10, LCFdSCYLnAYT] (H-LCF[dS]CYL[1Nal]YT-OH)	79 ± 10 nM	–
CC(C)C[C@H](NC(=O)[C@H](Cc1ccc(O)cc1)NC(=O)[C@H](CS)NC(=O)[C@@H](CO)NC(=O)[C@H](Cc1ccccc1)NC(=O)[C@H](CC(N)=O)NC(=O)[C@@H](N)CC(C)C)C(=O)N[C@@H](Cc1c[nH]c2ccccc12)C(=O)N[C@@H](CS)C(=O)N[C@H](C(=O)O)[C@@H](C)O [SEQ ID NO: 11, LNFdSCYLWCT] (H-LNF[dS]CYLWCT-OH)	225 ± 40 nM	–
fucosylated EGF-like domain: fucosylated EGF-like domain (uPA4-43, produced by cleavage from pro-uPA) (LHQVPSNCDCLNGGT(Fuc)CVSNKYFSNIHWCNCPKKFGGQHCE; cysteine pairing not given here; UniProt P00749 24-63, looked up, fragment)	–	mitogenic activity [2]: mitogenic; mitogenic activity [3]: Neither fucosylated nor non-fucosylated EGF-like domain was mitogenic
uPA12-32: The critical domain alone, residues 12-32 of the uPA EGF-like domain (DCLNGGTCVSNKYFSNIHWCN; UniProt P00749 32-52, looked up, fragment)	–	affinity relative to intact ATF (fold less) [4]: about 100 fold; Kd ([4]; read-out: affinity for uPAR): 0.04 µM

From US6030940A, “Peptide analog inhibitors of urokinase receptor activity” (Chiron Corporation, priority 1997, dated 2000)
